# Measurements published in the NIST ThermoML archive (doi:10.1021/je2007378).
# ± gives the expanded uncertainty stated by the source.
# Experiment: not given
# Details: 298.15 K; 101.33 kPa; Liquid; Vibrating tube method
row,Structure (SMILES),molar volume [m3/mol]
1,C[Si](C)(C)O[Si](C)(C)C [hexamethyldisiloxane],0.000214 ± 6e-08
2,C[Si](C)(C)O[Si](C)(C)O[Si](C)(C)O[Si](C)(C)C [decamethyltetrasiloxane],0.0003662 ± 7.9e-07
3,C[Si](C)(C)O[Si](C)(C)O[Si](C)(C)C [octamethyltrisiloxane],0.0002903 ± 3e-07
4,CCCCCCC [heptane],0.0001474 ± 5e-08
5,C[Si](C)(C)O[Si](C)(C)O[Si](C)(C)O[Si](C)(C)O[Si](C)(C)C [dodecamethylpentasiloxane],0.0004424 ± 9.7e-07

# Second part, the molecule after the results:
row,molar volume [m3/mol],Structure (SMILES)
1,0.0003889 ± 9.1e-07,C[Si]1(C)O[Si](C)(C)O[Si](C)(C)O[Si](C)(C)O[Si](C)(C)O1 [decamethylcyclopentasiloxane]
2,0.0003121 ± 1e-07,C[Si]1(C)O[Si](C)(C)O[Si](C)(C)O[Si](C)(C)O1 [octamethylcyclotetrasiloxane]

# Experiment: excess molar enthalpy (molar enthalpy of mixing); xn = mol fraction of the nth substance listed
# Details: 298.15 K; 101 kPa; Liquid; Calvet calorimetry; x1 = 0.5
row,excess molar enthalpy [kJ/mol],Structure (SMILES)
1,1 ± 1,C[Si](C)(C)O[Si](C)(C)O[Si](C)(C)O[Si](C)(C)O[Si](C)(C)C [dodecamethylpentasiloxane] + CCCCCCC
2,1 ± 1,C[Si](C)(C)O[Si](C)(C)O[Si](C)(C)C [octamethyltrisiloxane] + CCCCCCC
3,1 ± 1,C[Si](C)(C)O[Si](C)(C)O[Si](C)(C)O[Si](C)(C)C [decamethyltetrasiloxane] + CCCCCCC
4,5 ± 1,C[Si](C)(C)O[Si](C)(C)C [hexamethyldisiloxane] + CCCCCCC

# Same assay, conditions: 298.15 K; 101 kPa; Liquid; Calvet calorimetry; x2 = 0.5
row,excess molar enthalpy [kJ/mol],Structure (SMILES)
1,1 ± 1,C[Si]1(C)O[Si](C)(C)O[Si](C)(C)O[Si](C)(C)O1 [octamethylcyclotetrasiloxane] + CCCCCCC
2,1 ± 1,C[Si]1(C)O[Si](C)(C)O[Si](C)(C)O[Si](C)(C)O[Si](C)(C)O1 [decamethylcyclopentasiloxane] + CCCCCCC
